Numbers after ± are expanded uncertainties.
Assay: xn = mol fraction of the nth substance listed
Conditions: Liquid, Vibrating tube method

## CCCCCCCCCC [decane] + CCO
303.2 K, 100 kPa, x2 = 0.25
  mass density: 726.4 ± 0.3 kg/m3
303.2 K, 100 kPa, x2 = 0.5
  mass density: 732.8 ± 0.3 kg/m3
303.2 K, 100 kPa, x2 = 0.75
  mass density: 746.3 ± 0.3 kg/m3
303.2 K, 1000 kPa, x2 = 0.25
  mass density: 727.2 ± 0.3 kg/m3
303.2 K, 1000 kPa, x2 = 0.5
  mass density: 733.7 ± 0.3 kg/m3
303.2 K, 1000 kPa, x2 = 0.75
  mass density: 747.2 ± 0.3 kg/m3
303.2 K, 2000 kPa, x2 = 0.25
  mass density: 728 ± 0.3 kg/m3
303.2 K, 2000 kPa, x2 = 0.5
  mass density: 734.5 ± 0.3 kg/m3
303.2 K, 2000 kPa, x2 = 0.75
  mass density: 748.1 ± 0.3 kg/m3
303.2 K, 3000 kPa, x2 = 0.25
  mass density: 728.8 ± 0.3 kg/m3
303.2 K, 3000 kPa, x2 = 0.5
  mass density: 735.4 ± 0.3 kg/m3
303.2 K, 3000 kPa, x2 = 0.75
  mass density: 749 ± 0.3 kg/m3
303.2 K, 4000 kPa, x2 = 0.25
  mass density: 729.6 ± 0.3 kg/m3
303.2 K, 4000 kPa, x2 = 0.5
  mass density: 736.3 ± 0.3 kg/m3
303.2 K, 4000 kPa, x2 = 0.75
  mass density: 749.8 ± 0.3 kg/m3
303.2 K, 5000 kPa, x2 = 0.25
  mass density: 730.4 ± 0.4 kg/m3
303.2 K, 5000 kPa, x2 = 0.5
  mass density: 737.1 ± 0.3 kg/m3
303.2 K, 5000 kPa, x2 = 0.75
  mass density: 750.7 ± 0.3 kg/m3
303.2 K, 6000 kPa, x2 = 0.25
  mass density: 731.3 ± 0.4 kg/m3
303.2 K, 6000 kPa, x2 = 0.5
  mass density: 738 ± 0.4 kg/m3
303.2 K, 6000 kPa, x2 = 0.75
  mass density: 751.6 ± 0.3 kg/m3
303.2 K, 7000 kPa, x2 = 0.25
  mass density: 732.1 ± 0.4 kg/m3
303.2 K, 7000 kPa, x2 = 0.5
  mass density: 738.8 ± 0.4 kg/m3
303.2 K, 7000 kPa, x2 = 0.75
  mass density: 752.4 ± 0.3 kg/m3
303.2 K, 8000 kPa, x2 = 0.25
  mass density: 732.9 ± 0.4 kg/m3
303.2 K, 8000 kPa, x2 = 0.5
  mass density: 739.7 ± 0.4 kg/m3
303.2 K, 8000 kPa, x2 = 0.75
  mass density: 753.3 ± 0.3 kg/m3
303.2 K, 9000 kPa, x2 = 0.25
  mass density: 733.7 ± 0.4 kg/m3
303.2 K, 9000 kPa, x2 = 0.5
  mass density: 740.5 ± 0.4 kg/m3
303.2 K, 9000 kPa, x2 = 0.75
  mass density: 754.1 ± 0.3 kg/m3
303.2 K, 10000 kPa, x2 = 0.25
  mass density: 734.5 ± 0.4 kg/m3
303.2 K, 10000 kPa, x2 = 0.5
  mass density: 741.3 ± 0.4 kg/m3
303.2 K, 10000 kPa, x2 = 0.75
  mass density: 755 ± 0.3 kg/m3
323.2 K, 100 kPa, x2 = 0.25
  mass density: 709.6 ± 0.3 kg/m3
323.2 K, 100 kPa, x2 = 0.5
  mass density: 715.8 ± 0.3 kg/m3
323.2 K, 100 kPa, x2 = 0.75
  mass density: 728.5 ± 0.3 kg/m3
323.2 K, 1000 kPa, x2 = 0.25
  mass density: 710.3 ± 0.3 kg/m3
323.2 K, 1000 kPa, x2 = 0.5
  mass density: 716.7 ± 0.3 kg/m3
323.2 K, 1000 kPa, x2 = 0.75
  mass density: 729.5 ± 0.3 kg/m3
323.2 K, 2000 kPa, x2 = 0.25
  mass density: 711.2 ± 0.3 kg/m3
323.2 K, 2000 kPa, x2 = 0.5
  mass density: 717.7 ± 0.3 kg/m3
323.2 K, 2000 kPa, x2 = 0.75
  mass density: 730.6 ± 0.3 kg/m3
323.2 K, 3000 kPa, x2 = 0.25
  mass density: 712.2 ± 0.3 kg/m3
323.2 K, 3000 kPa, x2 = 0.5
  mass density: 718.6 ± 0.3 kg/m3
323.2 K, 3000 kPa, x2 = 0.75
  mass density: 731.5 ± 0.3 kg/m3
323.2 K, 4000 kPa, x2 = 0.25
  mass density: 713.1 ± 0.4 kg/m3
323.2 K, 4000 kPa, x2 = 0.5
  mass density: 719.6 ± 0.3 kg/m3
323.2 K, 4000 kPa, x2 = 0.75
  mass density: 732.6 ± 0.3 kg/m3
323.2 K, 5000 kPa, x2 = 0.25
  mass density: 714 ± 0.4 kg/m3
323.2 K, 5000 kPa, x2 = 0.5
  mass density: 720.5 ± 0.3 kg/m3
323.2 K, 5000 kPa, x2 = 0.75
  mass density: 733.5 ± 0.3 kg/m3
323.2 K, 6000 kPa, x2 = 0.25
  mass density: 714.9 ± 0.4 kg/m3
323.2 K, 6000 kPa, x2 = 0.5
  mass density: 721.5 ± 0.3 kg/m3
323.2 K, 6000 kPa, x2 = 0.75
  mass density: 734.5 ± 0.3 kg/m3
323.2 K, 7000 kPa, x2 = 0.25
  mass density: 715.8 ± 0.4 kg/m3
323.2 K, 7000 kPa, x2 = 0.5
  mass density: 722.4 ± 0.3 kg/m3
323.2 K, 7000 kPa, x2 = 0.75
  mass density: 735.4 ± 0.3 kg/m3
323.2 K, 8000 kPa, x2 = 0.25
  mass density: 716.8 ± 0.4 kg/m3
323.2 K, 8000 kPa, x2 = 0.5
  mass density: 723.3 ± 0.4 kg/m3
323.2 K, 8000 kPa, x2 = 0.75
  mass density: 736.4 ± 0.3 kg/m3
323.2 K, 9000 kPa, x2 = 0.25
  mass density: 717.7 ± 0.4 kg/m3
323.2 K, 9000 kPa, x2 = 0.5
  mass density: 724.2 ± 0.4 kg/m3
323.2 K, 9000 kPa, x2 = 0.75
  mass density: 737.4 ± 0.4 kg/m3
323.2 K, 10000 kPa, x2 = 0.25
  mass density: 718.6 ± 0.4 kg/m3
323.2 K, 10000 kPa, x2 = 0.5
  mass density: 725.2 ± 0.4 kg/m3
323.2 K, 10000 kPa, x2 = 0.75
  mass density: 738.4 ± 0.4 kg/m3
